# Measured values published in patent US3956291A, “7-Thioacetamido cephalosporanic acid derivatives” (American Home Products Corporation, priority 1974, dated 1976).
# Read-outs that look alike come from different tables or passages of the source.
# Experiments:
# Assay in all cases: agar serial dilution test, minimum inhibitory concentration
# Format in all cases: cell-based
# Staphylococcus aureus = settings: for MIC: Staphylococcus aureus
# Text: (§1) The compounds of this invention are useful for the treatment of bacterial infections amenable to treatment by cephalosporins. […] In accordance with the results obtained with the antibacterial compounds of this invention, their usefulness is established in the fields of comparative pharmacology and microbiology for the purpose of inhibiting the growth of undesirable bacterial colonies. […]
# proteus vulgaris = test system: proteus vulgaris
# Text: as §1
# klebsiella pneumoniae = test system: klebsiella pneumoniae
# Text: as §1
# escherichia coli = test system: escherichia coli
# Text: as §1
# salmonella paratyphi = settings: Salmonella enterica, read-out: Minimum Inhibitory Concentration
# Text: as §1
# neisseria catarrhalis = test system: neisseria catarrhalis
# Text: as §1
# bordetella brochiseptica = settings: BO BR strain 4617
# Text: as §1
# bacillus subtilis = settings: BA SU strain 6633; for MIC: Bacillus subtilis
# Text: as §1
# [1] = PR VU strain 6896, read-out: Minimum Inhibitory Concentration
# [2] = KL PN strain 10031, read-out: Minimum Inhibitory Concentration
# [3] = NE CA strain 8193, read-out: Minimum Inhibitory Concentration
# [4] = read-out: Minimum Inhibitory Concentration
Structure (SMILES),MIC (Staphylococcus aureus; ST AU strain 53-180) [µg/mL],MIC (Staphylococcus aureus; ST AU strain 6538P) [µg/mL],MIC (Staphylococcus aureus; ST AU strain CHP) [µg/mL],MIC (Staphylococcus aureus; ST AU strain Smith) [µg/mL],MIC (proteus vulgaris; [1]) [µg/mL],MIC (klebsiella pneumoniae; [2]) [µg/mL],MIC (escherichia coli; ES CO strain 920) [µg/mL],MIC (escherichia coli; ES CO strain 9637) [µg/mL],MIC (salmonella paratyphi) [µg/mL],MIC (neisseria catarrhalis; [3]) [µg/mL],MIC (bordetella brochiseptica) [µg/mL],MIC (bacillus subtilis) [µg/mL],MIC (proteus vulgaris; [4]) [µg/mL],MIC (neisseria catarrhalis; [4]) [µg/mL],MIC (klebsiella pneumoniae; [4]) [µg/mL],Minimum Inhibitory Concentration (Staphylococcus aureus; ST AU strain 6538P) [micrograms per milliliter],Minimum Inhibitory Concentration (Staphylococcus aureus; ST AU strain Smith) [micrograms per milliliter],Minimum Inhibitory Concentration (bacillus subtilis) [micrograms per milliliter],MIC (Staphylococcus aureus; ST AU (ditto mark) strain 9637 (so in the source)) [µg/mL]
"CC(=O)OCC1=C(C(=O)O)N2C(=O)[C@@H](NC(=O)CSC(=NC#N)SCc3cccc(Cl)c3)[C@H]2SC1 [Example 16, 7-[2-[(3-chlorophenylmethylthio) (cyanoimino)methylthio]acetamido]cephalosporanic acid]",3.9,0.976,1.95,1.95,125,125,250,250,31.3,125,250,0.122,,,,,,,
"CC(=O)OCC1=C(C(=O)O)N2C(=O)[C@@H](NC(=O)CSC(=NC#N)SCc3ccc([N+](=O)[O-])cc3)[C@H]2SC1 [Example 13, 7-[2-[(cyanoimino)(4-nitrophenylmethylthio)methylthio]acetamido]cephalosporanic acid]",3.9,1.95,3.9,1.95,,250,,250,62.5,,125,0.488,62.5,62.5,,,,,
"C#CCSC(=NC#N)SCC(=O)N[C@@H]1C(=O)N2C(C(=O)O)=C(COC(C)=O)CS[C@H]12 [Example 17, 7-[2-[(cyanoimino) (2-propynylthio)methylthio]acetamido]cephalosporanic acid]",3.9,0.488,3.9,0.488,62.5,,62.5,31.3,7.81,125,,0.122,,,7.81,,,,
CCOC(=O)CSC(SCC(=O)N[C@@H]1C(=O)N2C(C(=O)O)=C(COC(C)=O)CS[C@H]12)=C(C#N)C(N)=O [Example 4],1.95,0.488,3.9,0.488,125,125,,250,62.5,3.9,,0.061,,,,,,,
"CC(=O)OCC1=C(C(=O)O)N2C(=O)C(NC(=O)CSC(SCC#N)=C(C#N)S(C)(=O)=O)C2SC1 (centres unmarked) [Example 11, 7-[2-(2-Cyano-1-cyanomethylthio-2-methylsulfonylethenylthio)acetamido]cephalosporanic acid]",,,,,,,,,,,,,,,,250,250,15.6,
"CC(=O)OCC1=C(C(=O)O)N2C(=O)[C@@H](NC(=O)CSC(SCC#N)=C(C#N)c3ccccc3)[C@H]2SC1 [Example 8, 7-(2-[2-Cyano-1-(cyanomethylthio)-2-phenylethenylthio]acetamido)cephalosporanic acid]",0.976,0.244,0.976,0.244,250,,250,25,62.5,3.9,250,0.031,,,62.5,,,,
"CC(=O)OCC1=C(C(=O)O)N2C(=O)[C@@H](NC(=O)CSC(=NC#N)SCC(=O)O)[C@H]2SC1 [Example 15, 7-[2-[(cyanoimino)(2-hydroxy-2-oxoethylthio)methylthio]acetamido]cephalosporanic acid]",,15.6,62.5,7.81,,250,,,125,,,1.95,125,,,,,,
"C=CCSC(=NC#N)SCC(=O)N[C@@H]1C(=O)N2C(C(=O)O)=C(COC(C)=O)CS[C@H]12 [Example 19, 7-[2-[(cyanoimino)(2-propenylthio)methylthio]acetamido]cephalosporanic acid]",3.9,1.95,7.81,1.95,,125,250,250,31.3,250,125,0.488,31.3,,,,,,
"CCOC(=O)CSC(=NC#N)SCC(=O)N[C@@H]1C(=O)N2C(C(=O)O)=C(COC(C)=O)CS[C@H]12 [Example 12, 7-[2-[(cyanoimino)(2-ethoxy-2-oxoethylthio)methylthio]acetamido]cephalosporanic acid]",1.95,0.976,3.9,0.488,62.5,,250,250,31.3,62.5,250,0.122,,,31.3,,,,
"CC(=O)OCC1=C(C(=O)O)N2C(=O)[C@@H](NC(=O)CSC(=C[N+](=O)[O-])SCc3ccccc3)[C@H]2SC1 [Example 9, 7-[2-(1-Benzylthio-2-nitroethenylthio)acetamido]cephalosporanic acid]",0.488,0.122,0.488,0.122,125,125,,250,62.5,7.81,250,0.031,,,,,,,
"CC(=O)OCC1=C(C(=O)O)N2C(=O)[C@@H](NC(=O)CSC(=NC#N)SCc3ccccc3)[C@H]2SC1 [Example 10, 7-[2-[ (cyanoimino) (phenylmethylthio)methylthio]acetamido]cephalosporanic acid]",1.95,0.976,3.9,0.976,15.6,15.6,62.5,15.6,3.9,62.5,15.6,0.122,,,,,,,
CSC(=NC#N)SCC(=O)N[C@@H]1C(=O)N2C(C(=O)O)=C(COC(C)=O)CS[C@H]12 [Example 5],3.9,1.95,7.81,0.976,62.5,125,250,,31.3,250,125,0.976,,,,,,,125
"CCOC(=O)CSC(SCC(=O)N[C@@H]1C(=O)N2C(C(=O)O)=C(COC(C)=O)CS[C@H]12)=C(C#N)C#N [Example 1, 7-(2[2,2-Dicyano-1-(ethoxycarbonylmethylthio)ethenylthio]acetamido)cephalosporanic acid]",3.9,0.976,7.81,0.976,,250,,250,125,,250,0.244,125,125,,,,,
"COC(=O)CSC(SCC(=O)N[C@@H]1C(=O)N2C(C(=O)O)=C(COC(C)=O)CS[C@H]12)=C(C#N)C(N)=O [Example 3, 7-(2-[2-Carbamoyl-1-(methoxycarbonylmethylthio)-2-cyanoethenylthio]acetamido) cephalosporanic acid]",1.95,0.488,3.9,0.488,62.5,125,,62.5,31.3,7.81,,0.122,,,,,,,
